Test results from patent publication US20150126448A1 (Genentech, Inc., priority 2003, published 2015).

Assays:
BxPC3 cells [1] = experiment: Inhibition of HGF-dependent cell proliferation in BxPC3 cells; assay type: cell-based, human; settings: 5 μg/ml test protein, 25 ng/ml HGF WT; for inhibition of HGF-dependent cell proliferation activity (% activity II): normalized to 5 μg/ml mutant alone (0%) and 25 ng/ml HGF WT (100%); for inhibition of HGF-dependent cell proliferation activity (% activity I): normalized to no HGF (0%) and 25 ng/ml HGF WT (100%)
Description: BxPC3 (human pancreatic adeocarcinoma; ECACC No. 93120816) were obtained from the European Collection of Cell Cultures (CAMR Centre for Applied Microbiology and Research, Porton Down, Salisbury, Wiltshire (UK) and were used in an HGF-dependent proliferation assay. Cells were grown in RPMI medium containing 10% FCS (Sigma F-6178, St. Louis, Mo.), 10 mM HEPES, 2 mM glutamine, 1× Penicillin-Streptomycin (Invitrogen 15140-122, Carlsbad, Calif.), 100× penicillin 10000 μg/ml-streptomycin 10000 mg/ml), and G418 (Invitrogen 10131-035) at 250 mg/ml. The cells were sequentially washed with PBS, PBS containing 10 mM EDTA, then removed using trypsin. The cells were harvested into serum containing media and the cell density was determined using a hemacytometer. Cells at 50000-75000/ml were seeded at 200 μl per well into a white bottom MT plate (Cultur Plate™ 6005680 Packard/PerkinElmer, Boston, Mass.) using the inside 60 wells only and allowed to grow for 24 h. The media was removed, the cells were washed with PBS and 200 ml of serum-free media containing 0.1% BSA (SF-BSA) was added back to the cells. The cells were grown for an additional 24 h. […] Controls were run in the absence of HGF and/or in the absence of test HGF proteins.
The cells were allowed to grow for 72 h and then assayed using the CellTiter-Glo Luminescent Kit (Promega G7571, Madison, Wis.). The procedure followed is described in Promega Technical Bulletin TB288. The microtiter plate was read on a Tropix TR717 microplate luminometer (Berthold 75323 Bad Wildbad, Germany). The percent of stimulation or inhibition of cell proliferation was normalized to the appropriate controls.

MDA-MB-435 cells = experiment: MDA-MB-435 cell migration transwell assay; assay type: cell-based
Description: (A) Representative purity of HGF mutants. […] Incomplete conversion of the secreted single-chain form by CHO expression in 1% FBS (v/v) is shown in lane 1. […] Molecular weight markers are shown as Mr×10^3. […] Values represent the averages of 4-8 independent experiments±SD.
Breast cancer cells MDA-MB-435 (HTB-129, ATCC, Manassas, Va.) were cultured in recommended serum-supplemented medium. Confluent cells were detached in PBS containing 10 mM EDTA and diluted with serum-free medium to a final concentration of 0.6−0.8×10^5 cells/ml. 0.2 ml of this suspension ([…]) was added in triplicate to the upper chambers of 24-well transwell plates (8 μm pore size) (HTS Multiwell™ Insert System, Falcon, Franklin Lakes, N.J.) pre-coated with 10 μg/ml of rat tail collagen Type I (Upstate, Lake Placid, N.Y.). […] After incubation for 13-14 h, cells on the apical side of the membrane were removed and those that migrated to the basal side were fixed in 4% paraformaldehyde followed by staining with a 0.5% crystal violet solution. After washing and airdrying, cells were solubilized in 10% acetic acid and the A560 was measured on a Molecular Devices microplate reader. […] Photographs of stained cells were taken with a Spot digital camera (Diagnostics Instruments, Inc., Sterling Heights, Mich.) connected to a Leitz microscope (Leica Mikroskope & Systeme GmbH, Wetzlar, Germany). […]

BxPC3 cells [2] = experiment: HGF-dependent proliferation assay in BxPC3 cells (stimulation); assay type: cell-based, human; settings: n=12
Description: BxPC3 (human pancreatic adeocarcinoma; ECACC No. 93120816) were obtained from the European Collection of Cell Cultures (CAMR Centre for Applied Microbiology and Research, Porton Down, Salisbury, Wiltshire (UK) and were used in an HGF-dependent proliferation assay. Cells were grown in RPMI medium containing 10% FCS (Sigma F-6178, St. Louis, Mo.), 10 mM HEPES, 2 mM glutamine, 1× Penicillin-Streptomycin (Invitrogen 15140-122, Carlsbad, Calif.), 100× penicillin 10000 μg/ml-streptomycin 10000 mg/ml), and G418 (Invitrogen 10131-035) at 250 mg/ml. The cells were sequentially washed with PBS, PBS containing 10 mM EDTA, then removed using trypsin. The cells were harvested into serum containing media and the cell density was determined using a hemacytometer. Cells at 50000-75000/ml were seeded at 200 μl per well into a white bottom MT plate (Cultur Plate™ 6005680 Packard/PerkinElmer, Boston, Mass.) using the inside 60 wells only and allowed to grow for 24 h. The media was removed, the cells were washed with PBS and 200 ml of serum-free media containing 0.1% BSA (SF-BSA) was added back to the cells. The cells were grown for an additional 24 h. […]
The cells were allowed to grow for 72 h and then assayed using the CellTiter-Glo Luminescent Kit (Promega G7571, Madison, Wis.). […] The microtiter plate was read on a Tropix TR717 microplate luminometer (Berthold 75323 Bad Wildbad, Germany). […]

Met-IgG fusion protein = Met-IgG fusion protein (UniProt P08581); experiment: HGF/Met-IgG competition binding ELISA; competitor: 1 nM biotinylated HGF

| Substance | inhibition of HGF-dependent cell proliferation activity (% activity II) (BxPC3 cells [1]) [%] | inhibition of HGF-dependent cell proliferation activity (% activity I) (BxPC3 cells [1]) [%] | also measured |
| --- | --- | --- | --- |
| HGF R695A: full length two-chain HGF with R695A mutation in the β-chain | 68 | 79 | – |
| HGF β: HGF β-chain residues Val495 to Ser728 with Cys604 to Ser mutation and C-terminal His6 tag | – | – | effect in cell migration assay (MDA-MB-435 cells; concentrations of up to 0.95 μM): had no effect |
| HGF: wild type hepatocyte growth factor, disulfide-linked two-chain α/β heterodimer, recombinant from CHO cells | – | – | proliferation activity at 25 ng/ml as % of the activity at 100 ng/ml (BxPC3 cells [2]): 83.6±13.0% |
| K641A [c173] (ligand) | – | – | IC50mut/IC50WT (Met-IgG fusion protein): 1.04 |
| proHGF: uncleavable single chain form of HGF with amino acid changes R494E and R424A | 75 | 63 | stimulation of cell migration (MDA-MB-435 cells; 1 nM, MDA-MB435 cells, FIG. 2B, 2C): did not stimulate cell migration |
